Assay results published in US6569904B1, “Agent for lowering endothelin levels” (Orion Corporation, priority 1998, dated 2003).

Columns and labels:
Format in all cases: in vivo, postmenopausal breast cancer patients
[1] = test system: endothelin-1 (ET-1); test: Effect on endothelin-1 level in plasma of patients treated orally for one year; settings: for Plasma level of endothelin-1, at 6 months: at 6 months of oral treatment (toremifene 40 mg/d, tamoxifen 20 mg/d, estradiol valerate 2 mg/d); for Plasma level of endothelin-1, at 6 months / Plasma level of endothelin-1, at 12 months / Plasma level of endothelin-1, before treatment: mean±SE; for Plasma level of endothelin-1, at 12 months: at 12 months of oral treatment (toremifene 40 mg/d, tamoxifen 20 mg/d, estradiol valerate 2 mg/d); for Plasma level of endothelin-1, before treatment: baseline before treatment, breast cancer patients; for Effect on endothelin-1 level in patients during the treatment (in words): oral treatment for one year
Description: Effect of toremifene on endothelin-1 level in plasma
(§1) Postmenopausal breast cancer patients were treated with 40 mg/d toremifene (Fareston™) (n=19), 20 mg/d tamoxifen (Tadex™) (n=25) or 2 mg/d estradiol valerate (Progynova™)(n=14) orally for one year. The 44 patients of the antiestrogen groups had been operated on breast cancer 6-8 weeks before the trial. Plasma samples (10 ml) were collected before and at 6 and 12 months of each regimen, and plasma levels of endothelin-1 (ET-1) and nitrite/nitrate (NOx) were measured by established methods. The data (presented as mean±SE) were analyzed by two-way analysis of variance (ANOVA) for repeated measures. When differences were indicated by ANOVA, their significances at individual timepoints were calculated by means of a t-test for independent means (between-groups comparison) or a t-test for dependent means (comparison to baseline within a single group). For determination of correlation between two variables, the Pearsson coefficient was calculated.

[2] = test system: nitrite/nitrate (NOx); test: Plasma nitrite/nitrate (NOx) level in patients treated orally for one year; settings: mean±SE; for Plasma level of nitrite/nitrate, at 6 months: at 6 months of oral treatment; for Plasma level of nitrite/nitrate, at 12 months: at 12 months of oral treatment; for Plasma level of nitrite/nitrate, before treatment: baseline before treatment, breast cancer patients
Description: as §1

[3] = Occurrence of thromboses and cerebrovascular accidents in three clinical adjuvant trials; settings: for Cerebrovascular accidents (number of occurrences) / Deep vein thromboses (number of occurrences): oral toremifene 40 mg/d (1120 patients) vs oral tamoxifen 20 mg/day (1110 patients) for 3 years, serious events
Description: Occurrence of thromboses and cerebrovascular accidents
In three clinical adjuvant trials effects of oral toremifene 40 mg/d was compared to oral tamoxifen 20 mg/day for 3 years in postmenopausal breast cancer patients. The occurrence of serious deep vein thromboses and serious cerebrovascular accidents in toremifen and tamoxifen groups are summarized in Table 2.

Row | Structure (SMILES) | Plasma level of endothelin-1, at 6 months [1] [ng/L] | Plasma level of endothelin-1, at 12 months [1] [ng/L] | Plasma level of endothelin-1, before treatment [1] [ng/L] | Plasma level of nitrite/nitrate, at 6 months [2] [µmol/L] | Plasma level of nitrite/nitrate, at 12 months [2] [µmol/L] | Plasma level of nitrite/nitrate, before treatment [2] [µmol/L] | Effect on endothelin-1 level in patients during the treatment (in words) [1] | Cerebrovascular accidents (number of occurrences) [3] | Deep vein thromboses (number of occurrences) [3] | Vascular complications (deep vein thrombosis and cerebrovascular events), comparison in words ([3]; tamoxifen treated patients compared with toremifene treated patients)
1 | CCCCC(=O)O[C@H]1CC[C@H]2[C@@H]3CCc4cc(O)ccc4[C@H]3CC[C@]12C [Estrogen, estradiol valerate] | 2.7 ± 0.2 | 2.7 ± 0.2 | 2.8 ± 0.2 | 21.5 ± 3.2 | 18.5 ± 2.7 | 25.8 ± 3.7 | – | – | – | –
2 | CC/C(=C(\c1ccccc1)c1ccc(OCCN(C)C)cc1)c1ccccc1 [Tamoxifen, tamoxifen] | 3.5 ± 0.2 | 3.2 ± 0.2 | 3.5 ± 0.2 | 22.8 ± 4.0 | 20.4 ± 2.5 | 20.6 ± 2.3 | no effect | 14 | 13 | clearly more vascular complications
3 | CN(C)CCOc1ccc(/C(=C(/CCCl)c2ccccc2)c2ccccc2)cc1 [Toremifene, toremifene] | 2.6 ± 0.2 | 2.6 ± 0.2 | 3.0 ± 0.2 | 21.0 ± 2.5 | 21.6 ± 3.1 | 23.4 ± 4.0 | significantly lowered endothelin-1 level | 2 | 7 | –
